Nine compounds from PubChem BioAssay (NCI) can be followed below.

Each structure is given as a SMILES string.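 A five-concentration, 48-hour dose response in 96-well plates underlies each endpoint, interpolated linearly between surrounding concentrations. TGI denotes the concentration required for complete inhibition of growth.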

Holding throughout (experiment): growth of human tumour cells (NCI), 48 h
In assay [1] the test system is 786-0 renal.
Assay [2] has as its system BT-549 breast.
Assay [3] concerns CCRF-CEM leukemia.
In assay [4] the test system is DU-145 prostate.
Assay [5] deals with HCC-2998 colon.
In assay [6] the test system is HS 578T breast.
The subject of assay [7] is MCF7 breast.
In assay [8] the test system is MDA-MB-231 breast.
The subject of assay [9] is MDA-N.
Assay [10] relates to NCI-H226 lung.
The subject of assay [11] is SF-295 CNS.
The subject of assay [12] is SK-MEL-5 melanoma.
For assay [13], the system named is SN12C renal.
The test system of assay [14] is SNB-19 CNS.
Assay [15] has as its system SW-620 colon.

Take `CC(C)(C)c1cc(C(=O)/C=C/c2c(Cl)cccc2Cl)cc(C(C)(C)C)c1O`: the TGI in assay [1] was 29.7 µM; in assay [2], 61.7 µM; in [3], 22 µM; in [4] it was above 96.2 µM; in assay [5], 28.1 µM; in [6], above 84 µM. The TGI in [7] is 46 µM; in [8] it was 41.6 µM; in assay [9] it was above 68.3 µM; in assay [10], 35.2 µM; in [11], 42.2 µM; in assay [12], 23.9 µM. Also, the TGI in [13] was above 75.2 µM; in [14], 29.7 µM; in assay [15], 36.2 µM.

For the compound `c1ccc(C(C2=Nc3cccc4cccc(c34)N2)c2ccccc2)cc1`, the TGI in assay [1] was 69.9 µM; in [2] it was 61.4 µM; in assay [3] it was above 100 µM; in [4], 91.3 µM; in assay [5], 37.8 µM; in [6], 81.8 µM. The TGI in assay [7] is above 100 µM; in assay [8] it was above 100 µM; in assay [9] it was 49.3 µM; in assay [10], 84.7 µM; in assay [11] it was 42.8 µM; in assay [12], 38.2 µM. Besides, the TGI in assay [13] was 30.2 µM; in [14], above 100 µM; in [15] it was above 100 µM.

As for `COc1c2c(cc3c1C(=O)c1c(O)cccc1C3=O)CC(O)CC2` (stereo not given), the TGI in [1] was above 100 µM; in assay [2] it was 43.1 µM; in assay [3], above 100 µM; in [4], above 100 µM; in assay [5] it was above 100 µM; in assay [6], 74.1 µM. The TGI in assay [7] is above 100 µM; in assay [8], 51.9 µM; in assay [9] it was above 100 µM; in assay [10], above 100 µM; in assay [11] it was 46.5 µM; in [12], above 100 µM. The TGI in assay [13] is above 100 µM; in assay [14], 57.1 µM; in assay [15], above 100 µM.

Consider `COc1ccccc1CCN1CCN(CCCc2ccccc2)CC1`, for which the TGI in assay [1], in assay [2], in [3], in assay [4], in assay [5] and in assay [6] was above 100 µM throughout. The TGI in assay [7] is above 100 µM; in assay [8], above 100 µM; in [9], above 100 µM; in assay [10], above 100 µM; in assay [11] it was above 100 µM; in assay [12], 45.7 µM. Moreover, the TGI in assay [13], in [14] and in assay [15] was above 100 µM each time.

In the case of `NC1c2c(Br)sc(N3CCCC3)c2C(=O)C1O` (stereo not given), the TGI in assay [1], in assay [2], in [3], in assay [4], in assay [5] and in [6] was above 50 µM in each case. The TGI in [7], in assay [8], in assay [9], in assay [10], in assay [11] and in assay [12] was above 50 µM in each case. The TGI in assay [13], in assay [14] and in assay [15] was above 50 µM each time.

With `CCCN(CCC)CCc1ccc(OC2=CCN(C)CC2)cc1`, the TGI in [1], in [2], in assay [3], in assay [4], in [5] and in [6] was above 100 µM in each case. Moreover, the TGI in assay [7], in assay [8], in assay [9], in [10], in assay [11] and in assay [12] was above 100 µM in each case. The TGI in assay [13], in assay [14] and in assay [15] was above 100 µM each time.

Turning to `COc1cccc2c1C(=O)C1=C(C2=O)C(O)CC(C)(C)O1` (stereo not given), the TGI is above 100 µM in assay [1]; above 100 µM in assay [2]; 66.9 µM in [3]; above 100 µM in [4]; above 100 µM in assay [5]; above 100 µM in [6]. Further, the TGI is above 100 µM in assay [7]; 87.7 µM in [8]; 36 µM in assay [9]; above 100 µM in assay [10]; above 100 µM in assay [11]; 28.3 µM in assay [12]. Also, the TGI in assay [13], in [14] and in assay [15] was above 100 µM in each case.

Regarding `CN(C)CCNc1ccc([N+](=O)[O-])c2sc3ccccc3c(=O)c12`, the TGI in assay [1] is 20.8 µM; in assay [2] it was 17.2 µM; in assay [3], above 100 µM; in [4], 31.5 µM; in [5] it was 13.1 µM; in assay [6], 38.8 µM. Besides, the TGI in assay [7] is 15.2 µM; in assay [8] it was 9.39 µM; in [9], 21.6 µM; in assay [10], 51.2 µM; in [11], above 100 µM; in assay [12], 20.6 µM. Also, the TGI in assay [13] was above 100 µM; in assay [14], 43.2 µM; in assay [15], above 100 µM.

For the compound `Cn1c(=O)c2c3ccccc3n(C)c2n(C)c1=O`, the TGI in assay [1], in assay [2], in assay [3], in [4], in assay [5] and in assay [6] was above 100 µM throughout. Besides, the TGI in assay [7], in assay [8], in assay [9], in assay [10], in [11] and in [12] was above 100 µM in each case. Moreover, the TGI in assay [13], in assay [14] and in assay [15] was above 100 µM throughout.
